Format in all cases: cell-based
The subject of assay [1] is E. coli of swine origin. Kind of assay: Curing of antibiotic resistance (replica plating). Conditions: for curing for amoxicillin and clavulanic acid / curing for ampicillin / curing for chloramphenicol: isolates treated with EB or IDU. As to the method: (§1) Plasmid curing of antibiotic resistant bacteria was measured as described by Lakshmi and Thomas (1989) and NCCLS (2000). Briefly, aliquots (final inoculum concentration approximately 1×10^5 CFU/ml) of Salmonella isolates, E. coli isolates, and commercial isolates of E. coli XL1-blue and E. coli RK2 were added to tubes containing 1 ml aliquots of increasing concentrations of P-YCWP or YCWP (0, 0.01, 0.1, 0.3, 0.5, 1.0, 2.0, 3.0% w/v). A control culture was established by adding bacterial isolates as described above to aliquots of increasing concentrations of mannose. Known curing agents [ethidium bromide and iododeoxyuridine (IDU)] were used as positive controls, and to provide a percent curing activity. Tubes were incubated at 35° C. for 24 hr.
(§2) Following incubation, bacterial aliquots were plated on MacConkey agar plates (master plates). Antibiotic resistance after treatment was evaluated by replica plating on MacConkey agar containing predetermined concentrations of antimicrobial agents. Minimum curing concentration (MCC) was defined as the minimum concentration of compound able to “cure” bacteria, that is, remove antibiotic resistance, within a 24 hr period. A sample was considered to contain bacteria resistant to an antibiotic when greater than 1% of a sample plated on a master plate of MacConkey agar grew on an antibiotic-containing replica plate.

In assay [2] the test system is S. enteritidis (ATCC 13076). Kind of assay: Curing / plasmid loss. Particulars: streptomycin-resistant; 24 hr exposure, replica plating. Here is the method:
as §1
(§3) Following incubation, bacterial aliquots were plated on MacConkey agar plates (master plates). Antibiotic resistance after treatment was evaluated by replica plating on MacConkey agar containing predetermined concentrations of antimicrobial agents. Minimum curing concentration (MCC) was defined as the minimum concentration of compound able to “cure” bacteria, that is, remove antibiotic resistance, within a 24 hr period. […]
(§4) Plasmids were evaluated by microbial lysis and extraction of DNA (Mini-prep System, Bio-Rad Laboratories, Hercules, Calif.), followed by electrophoretic separation on 1% agarose gel (Bio-Rad). […]

Assay [3] has as its system E. coli XL1-blue. Briefly: Curing / plasmid loss, narrow range plasmid strain. Conditions: FIG. 4. Here is the method:
as §1, §3, §4

Assay [4] relates to E. coli ATCC 33766, plasmid pRK248clts. Briefly: Curing, broad range plasmid strain. Conditions: tetracycline-resistant determinant; data not shown. As to the method: as §1, §2
In assay [5] the test system is E. coli (30). Kind of assay: Agglutination. Conditions: sugar 100 mM. Here is the method: (§5) E. coli and Salmonella isolates were evaluated for ability to agglutinate P-YCWP and YCWP by growing isolates into TIF slants (10 g peptone, 5 g NaCl, 5 g yeast extract and 15 g bacto agar per liter) for 24 hr. Sugar solutions (100 mM) of glucose, mannose, or fructose were prepared in 100 mM phosphate-buffered solution (PBS) at pH 7.2. Yeast cell wall preparations were suspended (1 g YCWP) into 1 liter of PBS. The grown isolates were resuspended in PBS and mixed with 0.1 ml PBS as control or 0.1 ml sugar solution (glucose, mannose, or fructose) to occupy bacterial attachment sites. For adherence tests, 10 μl of P-YCWP or YCWP suspension was placed on a series of microscope slides. The negative control was […] of PBS mixed with YCWP suspension. Bacterial suspension (10 μl) as described above was added, mixed using an orbital shaker, and observed under light microscope (100-1000× magnification). The ability of any of the sugars to inhibit or weaken agglutination was considered evidence that that sugar played a role in agglutination/attachment for that bacteria.

Assay [6] relates to S. Cholerasuis (2). Briefly: Agglutination. Conditions: sugar 100 mM. Here is the method: as §5
The subject of assay [7] is S. pullorum (1). Kind of assay: Agglutination. Particulars: sugar 100 mM. As to the method: as §5
Assay [8] relates to Salmonella spp. (13). Briefly: Agglutination. Conditions: sugar 100 mM. As to the method: as §5

For the compound `CC[n+]1c(-c2ccccc2)c2cc(N)ccc2c2ccc(N)cc21` [EB, ethidium bromide], in assay [1], the “curing for amoxicillin and clavulanic acid” value was 100%; the curing for ampicillin worked out at 5%; the curing for chloramphenicol is recorded as 100%.

Regarding `O=c1[nH]c(=O)n([C@H]2C[C@H](O)[C@@H](CO)O2)cc1I` [IDU, iododeoxyuridine], in assay [1] (EB or IDU treatment), the curing for neomycin result is given as “no curing” and the curing for tetracycline result is given as “no curing”. Moreover, in assay [1], the “curing for amoxicillin and clavulanic acid” value is 100%; the curing for ampicillin turned out to be 5%; the curing for chloramphenicol amounted to 100%. Besides, in assay [2], the curing result was “Neither EB nor IDU showed any curing capacity”. The curing entry in assay [3] was “curing was seen”. Also, in assay [4], the “curing of the organism carrying the broad range plasmid” value is given as “Neither yeast cell wall preparations nor traditional curing agents (EB, IDU) cured the organism”.

`O=C(CO)[C@@H](O)[C@H](O)[C@H](O)CO` [Fructcose, fructose]: the “agglutination with YCWP or P-YCWP in presence of sugar” value in assay [5], in assay [6], in assay [7] and in assay [8] was “Negative (−)” throughout.

Source of the values: patent US20090263416A1, “REDUCTION OF ANTIBIOTIC RESISTANCE IN BACTERIA” (priority 2006, published 2009).
